According to US20240294465A1, “NOVEL ANTI-FIBROTIC DRUGS” (HELMHOLTZ ZENTRUM MUNCHEN - DEUTSCHES FORSCHUNGSZENTRUM FUR …, priority 2021, published 2024):

Tests used:
Format in all cases: cell-based
[1] = test system: human lung organoids derived from human lung progenitor cells; assay: Human lung organoid growth (colony formation efficiency); conditions: 10 μM, 14 days in culture
[2] = test system: cellular contractility of phLFs; assay: 3D collagen gel contractility assay of primary human lung fibroblasts; conditions: n=3 patient phLFs
Method: In a 96-well imaging plate 50 μl 3D collagen gels were casted per well as described before (30), and 20.000 phLFs per well were seeded on top. Cells were treated with 1 ng/mL TGFβ1 and/or example 84. After 72 h cells were fixed with 4% paraformaldehyde. Collagen gels were imaged using an Axiolmager2 (Zeiss) and the gel diameter was determined using Zen Blue v2.5 (Zeiss).

[3] = test system: TGFβ1-induced fibulin-1 ECM deposition in primary human lung IPF-fibroblasts (phLFs); assay: Assessing N23P activity in inhibiting ECM deposition in IPF-fibroblasts (fibulin-1 MFI); conditions: Homo sapiens, 72 h, 10 μM, TGFβ1 1 ng/ml, MFI, three different IPF-phLFs (n=3)
Method: phLFs were cultured in DMEM F-12 medium with 20% fetal bovine serum (FBS) and antibiotic supplement as mentioned above. Cells were seeded with 6000 cells/well in 384-well CellCarrier plates (Perkin Elmer, Cat #6007550). Following overnight incubation, cells were starved in serum-reduced medium (1% FBS with 0.1 mM 2-phosphoascorbate (Sigma, Cat #49752)) for 24 h. Afterwards, cells were treated with TGFβ1 (1 ng/ml) or vehicle, and additionally small molecules or appropriate vehicle controls were added. After 72 h of incubation, medium was changed for starving medium with 1 μg/mL AlexaFluor-488 fluorophore conjugated anti-collagen-type-5 antibodies (SantaCruz, Clone C-5, Cat #sc-166155 AF488), 0.66 μg/mL AlexaFluor-555 fluorophore conjugated anti-collagen-type-1 antibodies (Rockland, Cat #600-401-103-0.1), and 1 μg/mL AlexaFluor-637 fluorophore conjugated anti-fibulin 1 antibodies (SantaCruz, Clone C-5, Cat #sc-25281 AF647) and 1 μg/mL Hoechst H33342 (Sigma). Fluorescenceconjugation of the collagen type 1 antibody was done by using the AlexaFluor-555 Protein Labeling Kit (Invitrogen, Cat #A20174) according to manufacturer's instructions. Labeling efficacy was controlled by photometrical means.
Following four hours of incubation, cells were washed three times with PBS and fixed with paraformaldehyde (PFA). For automated liquid handling in 384 well plates, an INTEGRA Assist Plus (INTEGRA, Zizers, Switzerland) equipped with an INTEGRA Viaflo 1I pipette (INTEGRA, Zizers, Switzerland, Cat #4642), 125 μL GripTips™ pipette tips (INTEGRA, Zizers, Switzerland, Cat #6464) and sterile reagent reservoirs (INTEGRA, Cat #4311) were applied. All automated pipetting steps with the INTEGRA Assist Plus were performed at 9.5 μL/s in order to ensure proper integrity and attachment of the deposited ECM to the culturing surface within the wells of the 384-well plates. During cell seeding the automated liquid handling was performed at 89.3 μL/s. Removal of liquids from the well-plates was done by manually inverting the plates.
Following fixation, the automated imaging was achieved by using aconfocal laser scanning microscope (LSM710, Zeiss) with automated focus detection for three-dimensional image acquisition (1024 px×1024 px×9 px which equals a dimension of 1417 μm×1417 μm×16 μm). For post-acquisition analysis images were imported into IMARIS software (Bitplane) and volume detection or alternatively quantification of the mean fluorescence intensity, as well as Hoechst-stained cell nuclei were automatically counted by using Imaris' spot detection algorithm.
Cells were seeded with 6000 cells/well in 384-well CellCarrier plates. After overnight incubation, cells were starved in serum-reduced medium (1% FBS with 0.1 mM 2-phosphoascorbate for 24 h). Then, phLFs were treated with TGFβ1 (1 ng/ml) or vehicle, and incubated together with synthesized N23Ps (10 μM) or appropriate vehicle controls. After 72 h of incubation, medium was changed for starvation medium with 1 μg/mL AlexaFluor-637 fluorophore conjugated anti-fibulin 1 antibodies (SantaCruz, Clone C-5, Cat #sc-25281 AF647) and 1 μg/mL Hoechst H33342 (Sigma). Following four hours of incubation, cells were washed three times with PBS and fixed with paraformaldehyde (PFA). Following fixation, the automated imaging was achieved by using a confocal laser scanning microscope (LSM710, Zeiss) with automated focus detection for three-dimensional image acquisition (1024 px×1024 px×9 px which equals a dimension of 1417 μm×1417 μm×16 μm). For post-acquisition analysis images were imported into IMARIS software (Bitplane) and quantified for the mean fluorescence intensity, as well as Hoechst-stained cell nuclei were automatically counted by using Imaris' spot detection algorithm.
Assessment of ECM inhibition I: Mean fluorescence intensity (MFI) values represented the degree of fibulin-1 ECM deposition in three different IPF-phLFs (n=3). […]

CCCCOc1ccccc1NC(=O)/C=C/c1ccc(OC)c(OC)c1 [Example 84, (E)-N-(2-butoxyphenyl)-3-(3,4-dimethoxyphenyl)acrylamide]
organoid growth [1]: inhibited organoid growth | viability of lung progenitor cells (calcein / ethidium homodimer III) [1]: many lung progenitor cells are still viable | cellular contractility (collagen gel) [2]: significant inhibition of cellular contractility | inhibition at 10 µM [3]: > 90%
